Data reported in patent US20240360157A1, “TYK2 INHIBITORS” (BIOGEN MA INC., priority 2021, published 2024).

Tests used:
Assay type in all cases: biochemical
[1] = target: human TYK2 catalytic kinase (JH1) domain (Homo sapiens (Human), UniProt P29597); assay: ADP-Glo Kinase Assay, recombinant TYK2 catalytic kinase (JH1) domain; conditions: recombinant JH1 domain 2 nM, 10 μM ATP, JAK3-974 peptide, mean, read-out: TYK2 biochem IC50 (nM) Mean
How it was run: (§1)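 ADP-Glo luminescence with 50 μM peptide and 100 min reactions: JAK1 4 nM with JAK3-342 peptide; JAK2, JAK3 and TYK2 at 0.2, 0.3 and 2 nM with JAK3-974 peptide. Compounds tested from 10 or 1 μM top, 11 points, 3-fold. IC50 from a 4-parameter logistic fit of normalized activity.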

[2] = target: human JAK1 catalytic kinase (JH1) domain (Homo sapiens (Human), UniProt P23458); assay: ADP-Glo Kinase Assay, recombinant JAK1 catalytic kinase (JH1) domain; conditions: recombinant JH1 domain 4 nM, 35 μM ATP, JAK3-342 peptide, mean, read-out: JAK1 biochem IC50 (nM) Mean
Sequence of human JAK1 catalytic kinase (JH1) domain (P23458 875-1153): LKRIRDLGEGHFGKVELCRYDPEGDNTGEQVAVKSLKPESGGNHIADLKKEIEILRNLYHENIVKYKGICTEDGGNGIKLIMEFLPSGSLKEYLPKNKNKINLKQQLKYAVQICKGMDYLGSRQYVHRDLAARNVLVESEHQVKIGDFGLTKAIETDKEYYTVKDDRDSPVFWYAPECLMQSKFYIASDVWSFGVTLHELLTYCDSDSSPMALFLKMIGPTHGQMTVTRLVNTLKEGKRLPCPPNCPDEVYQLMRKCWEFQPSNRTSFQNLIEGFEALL
How it was run: as §1

[3] = target: human JAK2 catalytic kinase (JH1) domain (Homo sapiens (Human), UniProt O60674); assay: ADP-Glo Kinase Assay, recombinant JAK2 catalytic kinase (JH1) domain; conditions: recombinant JH1 domain 0.2 nM, 15 μM ATP, JAK3-974 peptide, mean, read-out: JAK2 biochem IC50 (nM) Mean
Sequence of human JAK2 catalytic kinase (JH1) domain (O60674 849-1124): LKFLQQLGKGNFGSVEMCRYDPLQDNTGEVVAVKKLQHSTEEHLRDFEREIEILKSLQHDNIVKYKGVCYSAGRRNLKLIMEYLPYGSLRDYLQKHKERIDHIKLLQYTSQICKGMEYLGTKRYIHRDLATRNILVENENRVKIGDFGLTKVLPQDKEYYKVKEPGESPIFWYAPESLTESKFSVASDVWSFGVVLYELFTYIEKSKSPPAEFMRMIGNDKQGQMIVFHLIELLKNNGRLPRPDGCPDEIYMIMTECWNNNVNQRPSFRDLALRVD
How it was run: as §1

[4] = target: human JAK3 catalytic kinase (JH1) domain (Homo sapiens (Human), UniProt P52333); assay: ADP-Glo Kinase Assay, recombinant JAK3 catalytic kinase (JH1) domain; conditions: recombinant JH1 domain 0.3 nM, 4 μM ATP, JAK3-974 peptide, mean, read-out: JAK3 biochem IC50 (nM) Mean
Sequence of human JAK3 catalytic kinase (JH1) domain (P52333 822-1111): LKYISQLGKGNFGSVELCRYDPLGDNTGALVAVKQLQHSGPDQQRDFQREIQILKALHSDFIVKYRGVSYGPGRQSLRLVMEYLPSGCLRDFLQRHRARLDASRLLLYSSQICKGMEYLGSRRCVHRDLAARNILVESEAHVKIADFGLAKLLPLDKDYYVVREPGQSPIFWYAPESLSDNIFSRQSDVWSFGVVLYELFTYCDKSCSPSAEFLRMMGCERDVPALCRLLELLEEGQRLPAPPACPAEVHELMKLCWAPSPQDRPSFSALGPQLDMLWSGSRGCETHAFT
How it was run: as §1

Sequence of human TYK2 catalytic kinase (JH1) domain (P29597 897-1176): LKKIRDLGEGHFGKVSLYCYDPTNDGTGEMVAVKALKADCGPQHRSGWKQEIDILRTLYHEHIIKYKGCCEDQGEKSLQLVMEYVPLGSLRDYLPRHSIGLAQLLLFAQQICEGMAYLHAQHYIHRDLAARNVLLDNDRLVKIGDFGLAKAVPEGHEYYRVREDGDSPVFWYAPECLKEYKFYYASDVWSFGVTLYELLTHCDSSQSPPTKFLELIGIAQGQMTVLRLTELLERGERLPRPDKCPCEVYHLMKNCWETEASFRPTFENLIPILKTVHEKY

SMILES	IC50 [1] [nM]	IC50 [2] [nM]	IC50 [3] [nM]	IC50 [4] [nM]
Cn1cc(-c2[nH]c3nccc(N4CC5CCC(C4)N5C(=O)[C@@H]4C[C@H]4F)c3c2C#N)cn1 [Example 250, 4-(8-((1S,2R)-2-fluorocyclopropane-1-carbonyl)-3,8-diazabicyclo[3.2.1]octan-3-yl)-2-(1-methyl-1H-pyrazol-4-yl)-1H-pyrrolo[2,3-b]pyridine-3-carbonitrile]	7.1	455	53	455
CNc1cc(-c2nc3c(N4CC5CCC(C4)N5C(=O)[C@@H]4C[C@H]4F)ccnc3[nH]2)ccn1 [Example 217, ((1S,2R)-2-fluorocyclopropyl)(3-(2-(2-(methylamino)pyridin-4-yl)-3H-imidazo[4,5-b]pyridin-7-yl)-3,8-diazabicyclo[3.2.1]octan-8-yl)methanone]	0.4	3	8	107
COc1cc(-c2cc3c(N4CC5CCC(C4)N5S(=O)(=O)C4CC4)ncnc3[nH]2)ccn1 [Example 192]	298	1860	3060	10000
Cn1cc(-c2cc3c(N4CC5CCC(C4)N5C(=O)[C@@H]4C[C@H]4F)ccnn3c2)cc(F)c1=O [Example 174]	6.6	149	84	1600
CNc1cc(-c2cc3c(N4CC5CCC(C4)N5C(=O)[C@@H]4C[C@H]4F)ccnn3c2)ccn1 [Example 99, ((1S,2R)-2-fluorocyclopropyl)(3-(6-(2-(methylamino)pyridin-4-yl)pyrrolo[1,2-b]pyridazin-4-yl)-3,8-diazabicyclo[3.2.1]octan-8-yl)methanone]	0.7	10	18	211
O=C(C1CC1)N1C2CCC1CN(c1ncnn3cc(-c4cnn(C5CCOC5)c4)cc13)C2 (stereo not shown) [Example 152]	145	1670	2150	2590
O=C([C@@H]1C[C@H]1F)N1C2CCC1CN(c1ccnn3cc(-c4ccc(F)nc4)cc13)C2 [Example 169]	1.8	47	49	288
O=C([C@@H]1C[C@H]1F)N1C2CCC1CN(c1ccnn3cc(-c4ncc(F)cn4)cc13)C2 [Example 108, ((1S,2R)-2-fluorocyclopropyl)(3-(6-(5-fluoropyrimidin-2-yl)pyrrolo[1,2-b]pyridazin-4-yl)-3,8-diazabicyclo[3.2.1]octan-8-yl)methanone]	48	909	1050	3920
O=C([C@@H]1C[C@H]1F)N1C2CCC1CN(c1ccnn3cc(-c4ccc(C(F)(F)F)nc4)cc13)C2 [Example 117, ((1S,2R)-2-fluorocyclopropyl)(3-(6-(6-(trifluoromethyl)pyridin-3-yl)pyrrolo[1,2-b]pyridazin-4-yl)-3,8-diazabicyclo[3.2.1]octan-8-yl)methanone]	5.2	67	64	878
O=C(C1CC1)N1C2CCC1CN(c1ccnn3cc(-c4cnn(C(F)(F)F)c4)cc13)C2 [Example 20, cyclopropyl(3-(6-(1-(trifluoromethyl)-1H-pyrazol-4-yl)pyrrolo[1,2-b]pyridazin-4-yl)-3,8-diazabicyclo[3.2.1]octan-8-yl)methanone]	30.2	356	532	1860
Cn1cc(-c2cc3c(N4CC5CCC(C4)N5S(=O)(=O)[C@@H]4CC4(F)F)ccnn3c2)cn1 [Example 198, 4-(8-(((R)-2,2-difluorocyclopropyl)sulfonyl)-3,8-diazabicyclo[3.2.1]octan-3-yl)-6-(1-methyl-1H-pyrazol-4-yl)pyrrolo[1,2-b]pyridazine]	15.1	266	95	652
Cn1cc(-c2cc3c(N4CC5CCC(C4)N5C(=O)C4CC4)ccnn3c2)cn1 [Example 15, cyclopropyl(3-(6-(1-methyl-1H-pyrazol-4-yl)pyrrolo[1,2-b]pyridazin-4-yl)-3,8-diazabicyclo[3.2.1]octan-8-yl)methanone]	13	646	376	888
O=C([C@@H]1CC1(F)F)N1C2CCC1CN(c1ccnn3cc(C4CC4)cc13)C2 [Example 25, (3-(6-cyclopropylpyrrolo[1,2-b]pyridazin-4-yl)-3,8-diazabicyclo[3.2.1]octan-8-yl)((S)-2,2-difluorocyclopropyl)methanone]	662	8060	10000	10000
O=C([C@H]1C[C@@H]1F)N1C2CCC1CN(c1ncnn3cc(-c4cnn(C(F)F)c4)cc13)C2 (single isomer, unassigned) [Example 75]	456	1580	≥ 10000	5060
Cc1cnc(-c2cc3c(N4CC5CCC(C4)N5C(=O)[C@@H]4C[C@H]4F)ccnn3c2)cn1 [Example 131, ((1S,2R)-2-fluorocyclopropyl)(3-(6-(5-methylpyrazin-2-yl)pyrrolo[1,2-b]pyridazin-4-yl)-3,8-diazabicyclo[3.2.1]octan-8-yl)methanone]	50.7	562	672	5470
Cn1cc(-c2cc3c(N4CC5CCC(C4)N5C(=O)C4CC(F)C4)ncnn3c2)cn1 (stereo not shown) [Example 69, (3-fluorocyclobutyl)(3-(6-(1-methyl-1H-pyrazol-4-yl)pyrrolo[2,1-f][1,2,4]triazin-4-yl)-3,8-diazabicyclo[3.2.1]octan-8-yl)methanone]	694	6660	10000	9720
O=C(C1CC1)N1C2CCC1CN(c1ncnn3cc(-c4cnn(C(F)F)c4)cc13)C2 [Example 150]	190	1850	3370	5620
N#C[C@@H]1C[C@@H]1C(=O)N1C2CCC1CN(c1ncnn3cc(-c4cnn(C(F)F)c4)cc13)C2 (racemic) [Example 47, Rac-(1R,2S)-2-(3-(6-(1-(difluoromethyl)-1H-pyrazol-4-yl)pyrrolo[2,1-f][1,2,4]triazin-4-yl)-3,8-diazabicyclo[3.2.1]octane-8-carbonyl)cyclopropane-1-carbonitrile]	783	2530	8360	6070
Cn1cc(-c2cc3c(N4CC5CCC(C4)N5C(=O)[C@@H]4C[C@H]4F)ncnn3c2)cc(F)c1=O [Example 167]	95	2210	1740	10000
N#Cc1cc(-c2cc3c(N4CC5CCC(C4)N5C(=O)[C@@H]4C[C@H]4F)ncnn3c2)ccn1 [Example 95, 4-(4-(8-((1S,2R)-2-fluorocyclopropane-1-carbonyl)-3,8-diazabicyclo[3.2.1]octan-3-yl)pyrrolo[2,1-f][1,2,4]triazin-6-yl)picolinonitrile]	45.5	741	942	7940
COc1cc(-c2cc3c(N4CC5CCC(C4)N5C(=O)[C@@H]4C[C@H]4F)c(F)cnc3[nH]2)ccn1 [Example 139, (3-(5-fluoro-2-(2-methoxypyridin-4-yl)-1H-pyrrolo[2,3-b]pyridin-4-yl)-3,8-diazabicyclo[3.2.1]octan-8-yl)((1S,2R)-2-fluorocyclopropyl)methanone]	5.5	39	74	144
CN(C)c1ccc(-c2cc3c(N4CC5CCC(C4)N5C(=O)[C@@H]4C[C@H]4F)ncnc3[nH]2)cn1 [Example 226, (3-(6-(6-(dimethylamino)pyridin-3-yl)-7H-pyrrolo[2,3-d]pyrimidin-4-yl)-3,8-diazabicyclo[3.2.1]octan-8-yl)((1S,2R)-2-fluorocyclopropyl)methanone]	14.9	116	244	468
COc1cc(-c2cc3c(N4CC5CCC(C4)N5C(=O)[C@@H]4C[C@H]4F)ccnn3c2)c(F)cn1 [Example 27, (3-(6-(5-fluoro-2-methoxypyridin-4-yl)pyrrolo[1,2-b]pyridazin-4-yl)-3,8-diazabicyclo[3.2.1]octan-8-yl)((1S,2R)-2-fluorocyclopropyl)methanone]	16	277	325	4000
O=C([C@@H]1C[C@H]1F)N1C2CCC1CN(c1ncnc3[nH]c(-c4cnn(C(F)F)c4)cc13)C2 [Example 221, (3-(6-(1-(difluoromethyl)-1H-pyrazol-4-yl)-7H-pyrrolo[2,3-d]pyrimidin-4-yl)-3,8-diazabicyclo[3.2.1]octan-8-yl)((1S,2R)-2-fluorocyclopropyl)methanone]	2.8	82	73	461
Cn1cc(-c2cc3c(N4CC5CCC(C4)N5C(=O)C4(F)CC4)ccnc3[nH]2)c(F)n1 [Example 243, (3-(2-(3-fluoro-1-methyl-1H-pyrazol-4-yl)-1H-pyrrolo[2,3-b]pyridin-4-yl)-3,8-diazabicyclo[3.2.1]octan-8-yl)(1-fluorocyclopropyl)methanone]	2.8	79	26	27
